According to patent publication US9650339B2, “Inhibitors of histone demethylases” (Gilead Sciences, Inc., priority 2013, dated 2017):

Tests used:
KDM4C (JMJD2C) = biological target: T1, KDM4C (JMJD2C) (Homo sapiens, UniProt Q9H3R0); experiment: Histone lysine demethylase AlphaLISA assay, KDM4C; assay type: biochemical; conditions: read-out: KDM4C HDME Inhibition IC50
T1 sequence (Q9H3R0 1-349): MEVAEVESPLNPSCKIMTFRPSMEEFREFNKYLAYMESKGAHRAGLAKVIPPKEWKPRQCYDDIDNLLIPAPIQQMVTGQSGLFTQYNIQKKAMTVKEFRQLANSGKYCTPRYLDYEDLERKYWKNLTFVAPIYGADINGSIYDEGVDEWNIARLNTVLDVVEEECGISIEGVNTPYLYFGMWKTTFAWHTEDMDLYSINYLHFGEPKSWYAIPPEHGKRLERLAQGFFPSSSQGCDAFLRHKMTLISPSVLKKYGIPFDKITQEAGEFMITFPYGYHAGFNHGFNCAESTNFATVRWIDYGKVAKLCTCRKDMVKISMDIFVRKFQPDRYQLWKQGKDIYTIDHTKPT
Outline: (§1)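 Biotinylated methylated H3 peptides (K9, K4, K27 or K36 marks) served as substrate, with 25 μM L-Asc and 10 μM α-KG. Enzymes were preincubated 10 min, then exposed to compounds (3% DMSO solutions) 10 min; product detected by AlphaLISA acceptor and streptavidin donor beads at room temperature in dark.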

KARPAS620 = experiment: Cell proliferation assay KARPAS620; assay type: cell-based; conditions: Homo sapiens, Karpas-620; KARPAS620, Plasma cell leukemia; method of Example 5
Description: (§2) MCF7 cells were seeded in multi well plates at a density optimized to give approximately 90% confluent cells at the time of harvest. Cells were incubated for 24 hours before addition of compound. Compounds were diluted in complete medium and added to the plates in duplicates. The final concentration of DMSO was maximum 0.5%. Complete medium used was DMEM with GlutaMAX containing 10% FBS and pen/strep.
(§3) 120 hours after addition of compounds, the plates were harvested and analyzed by ATPlite 1 Step (Perkin Elmer, cat no 6016739) according to the manufactures recommendation.
(§4) The assays were performed by the method of Example 5 by seeding the relevant cell line at a density optimized to give approximately 90% confluent cells at the time of harvest.

KDM6A (UTX) = KDM6A (UTX) (Homo sapiens, UniProt O15550); experiment: Histone lysine demethylase AlphaLISA assay, KDM6A; assay type: biochemical; conditions: read-out: KDM6A HDME Inhibition IC50
KDM6A (UTX), sequence (O15550 919-1401): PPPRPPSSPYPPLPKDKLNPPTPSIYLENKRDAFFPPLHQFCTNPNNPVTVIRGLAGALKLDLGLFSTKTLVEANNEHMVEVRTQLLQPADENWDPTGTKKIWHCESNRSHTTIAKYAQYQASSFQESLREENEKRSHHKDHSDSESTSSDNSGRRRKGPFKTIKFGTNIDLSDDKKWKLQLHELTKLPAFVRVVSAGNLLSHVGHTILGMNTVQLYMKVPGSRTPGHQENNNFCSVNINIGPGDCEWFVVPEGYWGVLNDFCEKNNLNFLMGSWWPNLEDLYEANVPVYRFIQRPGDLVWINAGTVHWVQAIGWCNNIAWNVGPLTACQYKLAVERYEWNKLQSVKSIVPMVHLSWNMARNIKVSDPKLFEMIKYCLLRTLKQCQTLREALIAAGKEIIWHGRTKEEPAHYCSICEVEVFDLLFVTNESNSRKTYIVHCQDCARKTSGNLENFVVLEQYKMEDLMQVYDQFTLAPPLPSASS
Outline: as §1

MOLP8 = experiment: Cell proliferation assay MOLP8; assay type: cell-based; conditions: Homo sapiens, MOLP-8; MOLP8, Myeloma; method of Example 5
Description: as §2, §3, §4

KDM2B (FBXL10) = biological target: T2, KDM2B (FBXL10) (Homo sapiens, UniProt Q8NHM5); experiment: Histone lysine demethylase AlphaLISA assay, KDM2B; assay type: biochemical; conditions: read-out: KDM2B HDME Inhibition IC50
T2 sequence (Q8NHM5 1-650): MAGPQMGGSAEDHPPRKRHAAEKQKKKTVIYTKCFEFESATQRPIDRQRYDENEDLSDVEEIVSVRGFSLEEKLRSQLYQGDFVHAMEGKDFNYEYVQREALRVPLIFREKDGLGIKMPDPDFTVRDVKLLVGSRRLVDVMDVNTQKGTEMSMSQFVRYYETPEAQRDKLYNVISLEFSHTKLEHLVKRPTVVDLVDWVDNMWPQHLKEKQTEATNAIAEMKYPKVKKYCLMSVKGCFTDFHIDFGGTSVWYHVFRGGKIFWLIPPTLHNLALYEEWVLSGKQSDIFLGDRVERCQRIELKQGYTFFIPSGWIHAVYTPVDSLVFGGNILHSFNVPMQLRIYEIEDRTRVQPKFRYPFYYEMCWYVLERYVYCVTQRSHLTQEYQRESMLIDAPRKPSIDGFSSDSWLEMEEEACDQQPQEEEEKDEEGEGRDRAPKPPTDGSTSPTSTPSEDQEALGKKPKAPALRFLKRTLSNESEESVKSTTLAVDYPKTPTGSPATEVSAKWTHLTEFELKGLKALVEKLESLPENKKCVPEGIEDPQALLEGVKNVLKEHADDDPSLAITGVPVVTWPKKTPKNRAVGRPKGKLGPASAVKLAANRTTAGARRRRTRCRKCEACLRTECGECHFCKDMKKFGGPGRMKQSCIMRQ
Outline: as §1

MCF7 cells = experiment: Cell proliferation assay MCF7; assay type: cell-based; conditions: MCF7 human breast cancer cells; 120 hours; ATPlite 1 Step
Outline: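 Cells grown 24 h in DMEM GlutaMAX/10% FBS, then exposed to compounds in duplicate (≤0.5% DMSO) for 120 h. Viability read as ATP luminescence (ATPlite 1 Step). Seeding set to reach ~90% confluence at harvest.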

KDM5B (PLU-1) = biological target: T3, KDM5B (PLU-1) (Homo sapiens, UniProt Q9UGL1); experiment: Histone lysine demethylase AlphaLISA assay, KDM5B; assay type: biochemical; conditions: read-out: KDM5B HDME Inhibition IC50
T3 sequence (Q9UGL1 1-809): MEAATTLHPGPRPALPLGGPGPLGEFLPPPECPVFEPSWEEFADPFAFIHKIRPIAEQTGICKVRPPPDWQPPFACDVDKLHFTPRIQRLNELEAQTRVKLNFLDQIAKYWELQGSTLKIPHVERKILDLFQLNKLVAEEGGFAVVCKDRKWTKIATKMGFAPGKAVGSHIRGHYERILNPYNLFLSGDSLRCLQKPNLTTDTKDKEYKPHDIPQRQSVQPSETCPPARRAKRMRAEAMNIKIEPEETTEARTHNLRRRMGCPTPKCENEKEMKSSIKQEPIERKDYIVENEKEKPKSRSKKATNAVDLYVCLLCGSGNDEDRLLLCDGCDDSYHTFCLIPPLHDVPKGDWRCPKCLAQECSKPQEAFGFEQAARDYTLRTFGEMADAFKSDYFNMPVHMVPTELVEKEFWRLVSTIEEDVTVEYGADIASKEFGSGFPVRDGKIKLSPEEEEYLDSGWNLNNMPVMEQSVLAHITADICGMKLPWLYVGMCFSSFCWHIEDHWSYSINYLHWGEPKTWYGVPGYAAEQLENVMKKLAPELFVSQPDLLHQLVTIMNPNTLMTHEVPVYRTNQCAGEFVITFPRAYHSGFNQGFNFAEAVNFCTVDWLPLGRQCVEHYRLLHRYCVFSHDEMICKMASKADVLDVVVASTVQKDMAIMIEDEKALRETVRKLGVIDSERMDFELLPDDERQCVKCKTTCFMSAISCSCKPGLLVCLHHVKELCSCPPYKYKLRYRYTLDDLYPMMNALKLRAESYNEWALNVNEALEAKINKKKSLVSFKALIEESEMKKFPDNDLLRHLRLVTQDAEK
Outline: as §1

## CCN(CCN(C)C)C(=O)CNCc1cc(/C=N/CC(CO)C2CCCCC2)ccn1 (stereo not shown) [Compound 81, 2-[({4-[[(2-cyclohexyl-3-hydroxypropyl)-imino]methyl]pyridin-2-yl}methyl)-amino]-N-[2-(dimethylamino)-ethyl]-N-ethylacetamide]
KDM4C (JMJD2C)
  IC50: 250 to 2500 nM
KARPAS620
  EC50: < 250 nM
KDM6A (UTX)
  IC50: > 2500 nM
MOLP8
  EC50: < 250 nM
KDM2B (FBXL10)
  IC50: > 2500 nM
MCF7 cells
  EC50: < 250 nM
KDM5B (PLU-1)
  IC50: < 250 nM
